Patent publication US20110118347A1, “TREATMENT Of RINGWORM” (Vernolix Limited, priority 2008, published 2011)

Tests used:
T. tonsurans = assay: Screen for activity against fungal lawns of T. tonsurans; type: cell-based, Trichophyton tonsurans
[1] = Penetration of compounds of Formula I into mammalian skin (living pig skin); type: in vitro ADME; conditions: 5% by wt in lanolin-based cream, applied to outer surface of living pig skin, after one hour
Description: The formulation may be applied to the outer surface of a section of living pig skin.

CCCCCC(O)C(O)CC=CCCCCCCCC(=O)O (centres unmarked) [Compound (iv), 12,13-dihydroxyoctadec-9-enoic acid]
fungicidal activity against fungal lawns of T. tonsurans (T. tonsurans): effective fungicidal activity | penetration of the active compounds into the dermis and epidermis [1]: a significant amount of compounds (i) and (iv) has penetrated the dermis
